Experimental data published in patent publication US20180022819A1, “COMPOSITIONS AND METHODS FOR COMBINATION THERAPY WITH PROSTATE-SPECIFIC MEMBRANE ANTIGEN BINDING PROTEINS” (APTEVO RESEARCH AND DEVELOPMENT LLC, priority 2015, published 2018).

How the values were obtained:
22Rv1 cells [1] = experiment: Flow cytometry: effect of prolonged enzalutamide treatment on PSMA expression level of 22Rv1 cells (Example 4); format: cell-based, human; conditions: 10 μM enzalutamide
Excerpt: Mean fluorescence intensity (MFI) of bound molecules on live cells is shown on the y-axis. Concentration (nM) of the anti-PSMA monoclonal antibody 107-1A4 labeled with FITC is shown on the x-axis.
22Rv1 cells (PSMA+ at low level) were obtained from ATCC (Manassas, Va.) and cultured according to the ATCC protocol in RPMI-1640 media plus 10% FBS. […] All four cultures were harvested, stained for PSMA with FITC-labeled anti-PSMA monoclonal antibody 107-1A4 (Acris), and PSMA expression assayed by standard flow cytometry procedures. 22Rv1 cells were harvested with trypsin, and placed into FACS buffer (PBS+0.5% BSA [Equitech]+2 mM EDTA [Life Technologies]) at 1×10e6 per ml. FITC-107-1A4 was prepared at 36 nM in FACS buffer, and serially diluted 1:3, before adding 50 μl to 2×10e5 22Rv1 cells which had been pelleted in a 96 well plate. After 30 minute incubation on ice, cells were washed 3 times in FACS buffer, resuspended in FACS buffer, and data acquired on a BD LSRII flow cytometer. The sample files were analyzed using FlowJo software; the median fluorescence intensity (MFI) of the live population of 22Rv1 cells in each well was calculated after gating on live cells (forward vs side scatter). Median fluorescence intensities were fit to a 4-parameter logistic curve and graphed as concentration vs. MFI using GraphPad PRISM® software.

LNCaP cells [2] = experiment: Effect of enzalutamide on redirected T-cell cytotoxicity in LNCaP cells expressing GFP (Example 1); format: cell-based, human; conditions: enzalutamide alone, […] nM in 0.2% DMSO, no T-cells, 4 days
Protocol: A titration of the anti-PSMA bispecific molecule TSC249 (protein sequence of SEQ ID NO: 78 in Table 3) was added to all sets of LNCaP cells in the amounts shown on the x-axis. T-cells and DMSO were added to the first set of LNCaP cells (leftmost set of bars). […] No T-cells and DMSO were added to the third set of LNCaP cells (set of bars second from the right). […] LNCaP cell growth (number of live cells) was measured by overall fluorescence and expressed as a fraction of live cells relative to the cells untreated with TSC249 on the y-axis.
LNCaP cells expressing GFP were cultured with donor T-cells at a 3:1 ratio of T-cells to LNCaP target cells for 4 days. […] DMSO alone was added to other samples. A titration of the anti-PSMA bispecific molecule TSC249 (protein sequence of SEQ ID NO: 78 in Table 3) was added to the cell cultures. LNCaP cell growth (number of live cells) was monitored by overall fluorescence.

22Rv1 cells [3] = experiment: Chromium-51 release assay of redirected T-cell cytotoxicity against 22Rv1 cells (Example 5); format: cell-based, human; conditions: 22Rv1 cells resistant to enzalutamide, 10 μM enzalutamide pre-treatment
Protocol: FIG. 3 (top panel) is a graph showing the results of a chromium-51 release assay measuring the effectiveness of the anti-PSMA bispecific molecule TSC249 at inducing redirected T-cell cytotoxicity in 4 hours against enzalutamide-treated and untreated prostate cancer 22Rv1 cells. Percent specific lysis relative to a total lysis control is shown on the y-axis. Concentration (pM) of the anti-PSMA bispecific molecule TSC249 is shown on the x-axis.
To compare the sensitivity of enzalutamide-treated and untreated 22Rv1 prostate cancer cells to target-dependent T-cell cytotoxicity, a bispecific binding molecule targeting PSMA and CD3 was tested in a chromium (^51Cr) release assay using donor T-cells as effector cells. [See, e.g., US 2014/0161800 A1, which describes multispecific binding molecules that bind to prostate-specific membrane antigen (PSMA) and CD3.]
Cytotoxicity was assessed by a ^51Cr release assay. […]
Plates were incubated for 4 hours, spun at 225×g for 3 minutes, and 25 μL of supernatant was transferred from each well to the corresponding well of a 96-well LUMAPLATE® sample plate (Perkin Elmer). Sample plates were allowed to air dry in a chemical safety hood for 18 hours, and then radioactivity was read on a Topcount scintillation counter using a standard protocol. […]

LNCaP cells [4] = experiment: Growth inhibition of LNCaP-GFP cells with primary human T-cells, 4 days, with combination index analysis (Example 6); format: cell-based; conditions: enzalutamide plus TSC249 over a wide range of concentrations, T-cells, 4 days
Protocol: Additional procedures are described in Example 6. Percentage of live cells relative to an untreated control is shown on the y-axis.
Combination indices can indicate additive effects (CI=1), synergism (CI<1), or antagonism (CI>1).
Overall fluorescent signal from GFP enabled the quantitation of living LNCaP target cells in isolation from T-cells. […] TSC249 was added to have final concentrations of 125, 62.5, 31.25, 15.6, 7.8, 3.9, or 1.95 pM, or none. T-cells from several donors were used in replicate experiments, added at a ratio of 45,000 T-cells to 15,000 LNCaP cells per well.
After 4 days culture at 37° C. in 5% CO2, media was aspirated from wells and […] of 0.4% NP-40 was added to each well. Fluorescent signal from GFP in LNCaP cells adherent in wells was detected by a Spectramax plate reader, reading from the bottom of the wells. […]
The combination index theorem developed by Chou and Talalay was used to determine the interaction between the two compounds in their anti-cancer activity (see Chou, Cancer Res. 2010 Jan. 15; 70(2):440-6; Chou, Pharmacol Rev. 2006 September; 58(3):621-81). For each plate, relative fluorescence units (RFU) of all wells were normalized to the RFU of the well containing cells only, i.e., the proportion of living LNCaP cells in each well was expressed in relation to untreated LNCaP cells. […] Mean values were calculated from three replicates. […]

## CNC(=O)c1ccc(N2C(=S)N(c3ccc(C#N)c(C(F)(F)F)c3)C(=O)C2(C)C)cc1F [enzalutamide]
22Rv1 cells [1]; one week of incubation, vs cells cultured without enzalutamide
  MFI from binding of FITC-107-1A4 to the 22Rv1 cells (PSMA expression): increase in the MFI
22Rv1 cells [1]; three weeks of incubation
  MFI from binding of FITC-107-1A4 to the 22Rv1 cells (PSMA expression): no additional increases
22Rv1 cells [1]; two weeks of incubation
  MFI from binding of FITC-107-1A4 to the 22Rv1 cells (PSMA expression): additional increase in the MFI value
LNCaP cells [2]
  reduction of live cells: ~20%
22Rv1 cells [3]
  sensitivity of target cells to T-cell mediated lysis: increasing the sensitivity
LNCaP cells [4]
  live cell signal when combined with the other drug: further decrease in live cell signal
